Measurements from patent US11834453B2, “Substituted pyrimido[5,4-d]pyrimidines as HER2 inhibitors” (Array BioPharma Inc., priority 2020, dated 2023).

Experiments:
[1] = biological target: ErbB2 with Exon 20 YVMA insertion (HER2-YVMA) (Homo sapiens (Human), UniProt P04626, INS775YVMA); test: Cellular phosphorylation assay, constitutive ErbB2 phosphorylation (Y1196) in engineered NIH 3T3 cells, Assay 4; assay type: cell-based
Outline: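 Engineered NIH 3T3 cells expressing HER2-YVMA treated with compounds 1 h at 37 °C, then formaldehyde-fixed and methanol-permeabilized. pErbB2 Y1196 detected by in-cell infrared immunofluorescence, normalized to GAPDH. IC50 from the normalized curves.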

[2] = biological target: EGFR (Homo sapiens (Human), UniProt P00533); test: ErbB enzyme assay (CisBio HTRF KinEASE-TK), Assay 3; assay type: biochemical
Outline: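 Inhibition is measured as reduced peptide phosphorylation by HTRF KinEASE-TK at 1 mM ATP and 250 nM substrate, 30 min at 22 °C. Values are IC50s from a 4-parameter logistic fit.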

[3] = biological target: ErbB2 WT (Homo sapiens (Human), UniProt P04626); test: ErbB enzyme assay (CisBio HTRF KinEASE-TK), Assay 2; assay type: biochemical
Outline: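 ErbB2 phosphorylates 250 nM biotin-TK substrate at 1 mM ATP in 25 mM HEPES pH 7.4, 10 mM MgCl2, 0.01% Triton X-100 and 2% DMSO, for 30 min at 22 °C. Product is detected by HTRF with Sa-XL665 and TK-Ab-Cryptate. Percent of control is set by DMSO-only wells and pre-quenched wells.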

[4] = biological target: ErbB2 insYVMA (HER2-YVMA, SEQ ID NO: 2) (Homo sapiens, UniProt P04626, INS775YVMA/P1170A); test: biochemical; conditions: ErbB2 insYVMA enzyme assay; read-out: Assay 1 IC50
[5] = biological target: EGFR wild type (EGFR WT) (Homo sapiens (Human), UniProt P00533); test: Cellular phosphorylation assay, EGF-stimulated EGFR phosphorylation in engineered NIH 3T3 cells, Phospho-EGFR DuoSet IC ELISA, Assay 5; assay type: cell-based
Outline: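 NIH 3T3 cells expressing EGFR WT (20,000/well, attached overnight) were exposed to serially diluted compound for 1 h at 37 °C, then stimulated with 100 ng/ml rEGF for 10 min. Phospho-EGFR in lysates measured by sandwich ELISA optical density; IC50 from curves.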

EGFR wild type (EGFR WT), sequence (P00533 25-1210): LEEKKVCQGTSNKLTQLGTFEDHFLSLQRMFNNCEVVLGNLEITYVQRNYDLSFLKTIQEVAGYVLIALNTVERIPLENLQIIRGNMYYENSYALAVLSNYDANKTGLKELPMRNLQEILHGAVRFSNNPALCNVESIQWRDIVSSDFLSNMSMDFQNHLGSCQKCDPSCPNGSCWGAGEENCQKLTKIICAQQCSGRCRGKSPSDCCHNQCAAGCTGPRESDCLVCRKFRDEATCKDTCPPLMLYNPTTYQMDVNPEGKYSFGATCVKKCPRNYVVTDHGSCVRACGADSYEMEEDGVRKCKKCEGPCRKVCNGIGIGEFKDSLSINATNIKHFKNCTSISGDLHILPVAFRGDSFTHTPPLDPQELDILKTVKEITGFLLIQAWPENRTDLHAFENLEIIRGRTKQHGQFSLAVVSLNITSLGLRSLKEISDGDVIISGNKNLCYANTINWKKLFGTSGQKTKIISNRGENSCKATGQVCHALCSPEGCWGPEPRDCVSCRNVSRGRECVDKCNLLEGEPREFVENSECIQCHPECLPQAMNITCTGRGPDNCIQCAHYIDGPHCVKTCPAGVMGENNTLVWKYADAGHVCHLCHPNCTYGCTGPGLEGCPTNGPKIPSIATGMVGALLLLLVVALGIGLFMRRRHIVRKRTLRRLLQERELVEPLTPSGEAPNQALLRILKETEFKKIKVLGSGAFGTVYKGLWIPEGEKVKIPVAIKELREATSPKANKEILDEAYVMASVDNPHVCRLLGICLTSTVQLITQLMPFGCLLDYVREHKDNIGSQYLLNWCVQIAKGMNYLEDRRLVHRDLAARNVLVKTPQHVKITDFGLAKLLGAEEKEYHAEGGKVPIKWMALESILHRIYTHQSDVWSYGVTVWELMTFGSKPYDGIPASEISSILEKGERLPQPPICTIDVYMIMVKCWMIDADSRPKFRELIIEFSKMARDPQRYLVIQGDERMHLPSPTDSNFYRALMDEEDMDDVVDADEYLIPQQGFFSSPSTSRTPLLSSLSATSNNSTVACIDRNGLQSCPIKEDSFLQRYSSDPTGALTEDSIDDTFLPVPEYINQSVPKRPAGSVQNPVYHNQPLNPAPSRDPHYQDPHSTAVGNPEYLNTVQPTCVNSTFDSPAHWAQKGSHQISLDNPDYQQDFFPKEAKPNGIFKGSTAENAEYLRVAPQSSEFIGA
EGFR, sequence (P00533 25-1210): as above
ErbB2 WT, sequence (P04626 23-1255): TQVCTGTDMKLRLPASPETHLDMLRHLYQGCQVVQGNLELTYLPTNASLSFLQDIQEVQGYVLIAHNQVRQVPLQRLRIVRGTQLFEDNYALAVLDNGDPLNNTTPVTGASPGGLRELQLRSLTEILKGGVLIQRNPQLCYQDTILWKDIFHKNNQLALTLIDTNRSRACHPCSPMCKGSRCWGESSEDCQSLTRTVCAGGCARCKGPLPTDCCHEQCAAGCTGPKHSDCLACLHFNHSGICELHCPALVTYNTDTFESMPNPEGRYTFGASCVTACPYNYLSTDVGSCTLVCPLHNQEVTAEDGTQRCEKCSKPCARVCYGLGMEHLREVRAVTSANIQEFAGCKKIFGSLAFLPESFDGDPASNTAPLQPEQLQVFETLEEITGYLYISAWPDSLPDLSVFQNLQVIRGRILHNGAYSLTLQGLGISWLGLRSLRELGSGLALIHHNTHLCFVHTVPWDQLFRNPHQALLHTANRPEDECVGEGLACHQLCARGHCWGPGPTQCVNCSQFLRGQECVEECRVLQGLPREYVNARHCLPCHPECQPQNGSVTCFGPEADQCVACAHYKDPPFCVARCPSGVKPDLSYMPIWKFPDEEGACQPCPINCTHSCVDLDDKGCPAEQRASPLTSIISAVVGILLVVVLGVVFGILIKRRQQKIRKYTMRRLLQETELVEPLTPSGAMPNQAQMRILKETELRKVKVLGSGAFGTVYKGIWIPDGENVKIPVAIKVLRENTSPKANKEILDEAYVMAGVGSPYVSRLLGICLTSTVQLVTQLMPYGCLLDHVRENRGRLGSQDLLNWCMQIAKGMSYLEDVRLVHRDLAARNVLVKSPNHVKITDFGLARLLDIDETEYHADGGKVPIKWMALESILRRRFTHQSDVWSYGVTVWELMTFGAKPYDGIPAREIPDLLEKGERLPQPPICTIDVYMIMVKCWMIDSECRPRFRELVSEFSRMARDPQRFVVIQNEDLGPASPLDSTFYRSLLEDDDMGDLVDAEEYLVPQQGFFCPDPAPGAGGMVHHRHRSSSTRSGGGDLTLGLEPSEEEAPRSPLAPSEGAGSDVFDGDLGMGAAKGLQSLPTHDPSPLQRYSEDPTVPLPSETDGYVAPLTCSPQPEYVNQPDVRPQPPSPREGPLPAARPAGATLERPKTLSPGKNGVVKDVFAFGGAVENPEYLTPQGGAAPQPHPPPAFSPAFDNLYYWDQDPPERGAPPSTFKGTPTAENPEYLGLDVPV
ErbB2 insYVMA (HER2-YVMA, SEQ ID NO: 2), sequence (P04626 with tags, fused parts or gaps INS775YVMA/P1170A limits assumed): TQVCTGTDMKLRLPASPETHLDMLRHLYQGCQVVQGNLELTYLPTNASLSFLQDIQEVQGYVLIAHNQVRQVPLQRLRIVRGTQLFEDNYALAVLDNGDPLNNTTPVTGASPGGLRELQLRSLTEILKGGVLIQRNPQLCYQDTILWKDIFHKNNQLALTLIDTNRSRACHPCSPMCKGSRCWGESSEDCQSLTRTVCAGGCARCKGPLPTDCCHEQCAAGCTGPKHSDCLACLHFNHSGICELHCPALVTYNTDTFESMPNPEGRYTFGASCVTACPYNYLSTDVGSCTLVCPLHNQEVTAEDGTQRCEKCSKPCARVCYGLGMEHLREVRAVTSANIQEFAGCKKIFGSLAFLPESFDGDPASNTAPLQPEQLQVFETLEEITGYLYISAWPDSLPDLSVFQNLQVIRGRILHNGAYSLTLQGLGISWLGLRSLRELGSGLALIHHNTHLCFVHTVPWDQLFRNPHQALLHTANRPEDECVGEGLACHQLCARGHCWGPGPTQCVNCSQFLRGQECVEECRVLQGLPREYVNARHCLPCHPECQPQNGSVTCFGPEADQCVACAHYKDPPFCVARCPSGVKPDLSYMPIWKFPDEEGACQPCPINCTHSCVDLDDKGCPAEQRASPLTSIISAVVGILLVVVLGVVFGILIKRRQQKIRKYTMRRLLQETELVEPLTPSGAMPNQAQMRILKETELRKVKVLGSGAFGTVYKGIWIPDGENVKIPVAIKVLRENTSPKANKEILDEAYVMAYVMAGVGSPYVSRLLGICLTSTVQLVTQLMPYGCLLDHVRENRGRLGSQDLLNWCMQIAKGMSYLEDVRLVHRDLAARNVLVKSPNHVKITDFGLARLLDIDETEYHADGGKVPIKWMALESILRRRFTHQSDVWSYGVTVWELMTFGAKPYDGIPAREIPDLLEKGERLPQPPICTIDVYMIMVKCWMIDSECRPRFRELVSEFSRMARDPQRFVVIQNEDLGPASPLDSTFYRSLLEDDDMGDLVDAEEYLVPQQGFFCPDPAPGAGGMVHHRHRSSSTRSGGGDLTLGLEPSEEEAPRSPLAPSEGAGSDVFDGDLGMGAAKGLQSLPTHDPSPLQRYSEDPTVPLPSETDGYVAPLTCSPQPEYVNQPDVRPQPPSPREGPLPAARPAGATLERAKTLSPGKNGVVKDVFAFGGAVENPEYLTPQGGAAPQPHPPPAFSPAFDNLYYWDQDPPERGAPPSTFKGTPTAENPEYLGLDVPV

Row | SMILES | IC50 [1] | IC50 [2] | IC50 [3] | IC50 [4] | IC50 [5]
1 | Cc1cc(Nc2ncnc3cnc(O[C@@H]4CNC[C@H](F)C4)nc23)ccc1Oc1ccc2c(c1)ncn2C [Example 295] | 40.4 nM | ≥ 10000 nM | 552 nM | 115 nM | ≥ 5000 nM
2 | COC[C@@H](C)Nc1ncc2ncnc(Nc3ccc(Oc4ccc5c(c4)ncn5C)c(C)c3)c2n1 [Example 61, (R)—N2-(1-methoxypropan-2-yl)-N8-(3-methyl-4-((1-methyl-1H-benzo[d]imidazol-5-yl)oxy)phenyl)pyrimido[5,4-d]pyrimidine-2,8-diamine] | 49.5 nM | ≥ 10000 nM | 107 nM | 36.9 nM | ≥ 5000 nM
3 | Cc1cc(Nc2ncnc3cnc(N4CC[C@H](OC(F)F)C4)nc23)ccc1Oc1ccn2ncnc2c1 [Example 361] | 312 nM | 7480 nM | 39.2 nM | 26.4 nM | ≥ 5000 nM
4 | Cc1c(Oc2ccn3ncnc3c2)ccc(Nc2ncnc3cnc(N(C)CC(C)(C)O)nc23)c1F [Example 306] | 1000 nM | 6840 nM | 35.1 nM | 16.7 nM | ≥ 5000 nM
5 | CSc1ncc2ncnc(Nc3ccc(Oc4ccc5c(c4)ncn5C)c(C)c3F)c2n1 [Example 266] | 642 nM | ≥ 10000 nM | 796 nM | 115 nM | ≥ 5000 nM
6 | Cc1cc(Nc2ncnc3cnc(N4CCC(C)(O)CC4)nc23)c(Cl)cc1Oc1ccc2c(c1)ncn2C [Example 482] | 229 nM | ≥ 10000 nM | 446 nM | 76.7 nM | ≥ 5000 nM
7 | CCOc1ncc2ncnc(Nc3ccc(Oc4ccc5scnc5c4)c(C)c3)c2n1 [Example 46, N-(4-(benzo[d]thiazol-5-yloxy)-3-methylphenyl)-6-ethoxpyrimido[5,4-d]pyrimidin-4-amine 2,2,2-trifluoroacetate] | 566 nM | 4250 nM | 760 nM | 95.2 nM | ≥ 5000 nM
8 | Cc1cc(Nc2ncnc3cnc(N4CC(C)CS4(=O)=O)nc23)ccc1Oc1ccc2c(c1)ncn2C (stereo not drawn) [Example 140, 4-methyl-2-(8-((3-methyl-4-((1-methyl-1H-benzo[d]imidazol-5-yl)oxy)phenyl)amino)pyrimido[5,4-d]pyrimidin-2-yl)isothiazolidine 1,1-dioxide] | 8.1 nM | 6360 nM | 20.3 nM | 21.3 nM | ≥ 5000 nM
9 | CN(c1ncc2ncnc(Nc3ccc(Oc4ccc5c(c4)ncn5C)c(Cl)c3)c2n1)[C@H]1CCOC1 [Example 117, (S)—N8-(3-chloro-4-((1-methyl-1H-benzo[d]imidazol-5-yl)oxy)phenyl)-N2-methyl-N2-(tetrahydrofuran-3-yl)pyrimido[5,4-d]pyrimidine-2,8-diamine] | 8.3 nM | ≥ 10000 nM | 93.3 nM | 46.7 nM | ≥ 5000 nM
10 | Cc1cc(Nc2ncnc3cnc(N4CCC5(CCO5)CC4)nc23)ccc1Oc1ccc2c(c1)ncn2C [Example 345] | 18.5 nM | ≥ 10000 nM | 57.8 nM | 31.3 nM | ≥ 5000 nM
11 | CCON1CCN(c2ncc3ncnc(Nc4ccc(Oc5ccc6c(c5)ncn6C)c(C)c4)c3n2)CC1 [Example 483] | 58.6 nM | ≥ 10000 nM | 262 nM | 76.5 nM | ≥ 5000 nM
12 | Cc1cc(Nc2ncnc3cnc(O[C@H]4CNCC4(F)F)nc23)ccc1Oc1ccc2c(c1)ncn2C [Example 303] | 257 nM | ≥ 10000 nM | 403 nM | 64.2 nM | ≥ 5000 nM
13 | Cc1cc(Nc2ncnc3cnc(NCc4cnn(C)c4C)nc23)ccc1Oc1ccc2c(c1)ncn2C [Example 103, N2-((1,5-dimethyl-1H-pyrazol-4-yl)methyl)-N8-(3-methyl-4-((1-methyl-1H-benzo[d]imidazol-5-yl)oxy)phenyl)pyrimido[5,4-d]pyrimidine-2,8-diamine] | 61.5 nM | ≥ 10000 nM | 56.6 nM | 20.3 nM | ≥ 5000 nM
14 | CN(CC(C)(C)O)c1ncc2ncnc(Nc3ccc(Oc4ccc5c(c4)ncn5C)c(Cl)c3)c2n1 [Example 456] | 47.6 nM | 4520 nM | 69.8 nM | 25.9 nM | ≥ 5000 nM
15 | N#C[C@H]1CCN(c2ncc3ncnc(Nc4ccc(Oc5ccn6ncnc6c5)c(Cl)c4)c3n2)C1 [Example 367] | 264 nM | ≥ 10000 nM | 64.7 nM | 16.5 nM | ≥ 5000 nM
